Usually inhibition stands for the relative decrease from the control value, in per cent. Read a low inhibition as a weak effect.

SMILES strings stand for the structures. Structures can show the parent of a compound that is named as a salt.

The first test has as its system TNF-α production in THP-1 cells. Kind of test: Inhibition of TNF-α production in THP-1 cells. Type of test: cell-based. The following applies: Homo sapiens; TNF-α levels from LPS (10 μg/mL) stimulated THP-1 cells, 100 nM test compound, 20 hours, vs 0.1% DMSO control. Here is the method:
THP-1 cells, a human monocytic cell line, were maintained in RPMI 1640 (Sigma R8758) supplemented with penicillin (50 U/ml), streptomycin (50 μg/ml) and 10% fetal bovine serum (Moregate BioTech.) at 37° C., 5% CO2 in a humidified incubator. Initial stock solutions of test compounds were made in DMSO. All cells, reagents and test compounds were diluted into culture media. THP-1 cells (1×10^5 cells/well final) and lipopolysaccharide (LPS; 10 μg/mL final; Sigma L-4005, from E. coli serotype 055:B5) were added to 96 well polypropylene culture plates (Sumilon, MS-8196F5; sterile) containing test compound or 0.1% DMSO vehicle. The cell mixture was incubated for 20 hours in a humidified incubator at 37° C., 5% CO2. The culture supernatants were harvested and TNF-α levels from LPS stimulated cells in the presence of 100 nM test compound was calculated compared with control cells stimulated in the presence of 0.1% DMSO.
`Cc1ccccc1-n1nc(-c2c(-c3ccc(F)cc3)nn3c2OCC3)ccc1=O` [Example 125, 6-[6-(4-fluorophenyl)-2,3-dihydropyrazolo[5,1-b][1,3]oxazol-7-yl]-2-(2-methylphenyl)pyridazin-3(2H)-one] gave an inhibition at 0.1 µM of 83%.
Consider `Cc1ccccc1-n1nc(-c2c(-c3ccc(F)cc3F)nn3c2NCC(CNC(C)(C)C)C3)ccc1=O` (stereo not shown) [Example 98, 6-{6-[(tert-Butylamino)methyl]-2-(2,4-difluorophenyl)-4,5,6,7-tetrahydropyrazolo[1,5-a]pyrimidin-3-yl}-2-(2-methylphenyl)pyridazin-3(2H)-one], for which the inhibition at 0.1 µM is 86%.
Consider `Cc1ccccc1-n1nc(-c2c(-c3ccc(F)cc3F)nn3c2NCC(CO)C3)ccc1=O` (stereo not shown) [Example 37, 6-[2-(2,4-Difluorophenyl)-6-(hydroxymethyl)-4,5,6,7-tetrahydropyrazolo[1,5-a]pyrimidin-3-yl]-2-(2-methylphenyl)pyridazin-3(2H)-one], for which at 0.1 µM the inhibition was 94%.
In turn, `CC(=O)N1CCC2(CC1)CNc1c(-c3ccc(=O)n(-c4ccccc4C)n3)c(-c3ccc(F)cc3)nn1C2` [Example 107, 6-[1-acetyl-2′-(4-fluorophenyl)-4′,5′-dihydrospiro[piperidine-4,6′-pyrazolo[1,5-a]pyrimidin]-3′-yl]-2-(2-methylphenyl)pyridazin-3(2H)-one] registered an inhibition at 0.1 µM of 90%.
`Cc1ccccc1-n1nc(-c2c(-c3ccc(F)cc3)nn3c2NCC(CO)(CO)C3)ccc1=O` [Example 35, 6-[2-(4-Fluorophenyl)-6,6-bis(hydroxymethyl)-4,5,6,7-tetrahydropyrazolo[1,5-a]pyrimidin-3-yl]-2-(2-methylphenyl)pyridazin-3(2H)-one] displayed an inhibition at 0.1 µM of 90%.
`Cc1ccccc1-n1nc(-c2c(-c3ccc(F)cc3F)nn3c2NCC(CN(C)C)C3)ccc1=O` (stereo not shown) [Example 1, 6-{2-(2,4-difluorophenyl)-6-[(dimethylamino)methyl]-4,5,6,7-tetrahydropyrazolo[1,5-a]pyrimidin-3-yl}-2-(2-methylphenyl)-3(2H)-pyridazinone] displayed an inhibition at 0.1 µM of 88%.
With `Cc1ccccc1-n1nc(-c2c(-c3ccc(F)cc3)nn3c2NC(CO)CC3)ccc1=O` (stereo in doubt) [Example 124, 6-[(5S)-2-(4-Fluorophenyl)-5-(hydroxymethyl)-4,5,6,7-tetrahydropyrazolo[1,5-a]pyrimidin-3-yl]-2-(2-methylphenyl)pyridazin-3(2H)-one], the inhibition at 0.1 µM was 94%.
The same measure, in the same setting: next, `Cc1ccccc1-n1nc(-c2c(-c3ccc(F)cc3)nn3c2NCC(F)(F)C3)ccc1=O` [Example 85, 6-[6,6-Difluoro-2-(4-fluorophenyl)-4,5,6,7-tetrahydropyrazolo[1,5-a]pyrimidin-3-yl]-2-(2-methylphenyl)pyridazin-3(2H)-one]: 88%.
The same measure, in the same setting: next, `Cc1ccccc1-n1nc(-c2c(-c3ccc(F)cc3)nn3c2N[C@H](CO)CC3)ccc1=O` [Example 123, 6-[(5S)-2-(4-fluorophenyl)-5-(hydroxymethyl)-4,5,6,7-tetrahydropyrazolo[1,5-a]pyrimidin-3-yl]-2-(2-methylphenyl)pyridazin-3(2H)-one]: 94%; `Cc1ccccc1-n1nc(-c2c(-c3ccc(F)cc3F)nn3cc(CN(C)C)cnc23)ccc1=O` [Example 2, 6-{2-(2,4-Difluorophenyl)-6-[(dimethylamino)methyl]pyrazolo[1,5-a]pyrimidin-3-yl}-2-(2-methylphenyl)-3(2H)-pyridazinone]: 98%.
Consider `Cc1ccccc1-n1nc(-c2c(-c3ccc(F)cc3)nn3c2NCC(C(=O)NC2CC2)C3)ccc1=O` (stereo not shown) [Example 57, N-cyclopropyl-2-(4-fluorophenyl)-3-[1-(2-methylphenyl)-6-oxo-1,6-dihydropyridazin-3-yl]-4,5,6,7-tetrahydropyrazolo[1,5-a]pyrimidine-6-carboxamide], for which testing at 0.1 µM gave an inhibition of 97%.
Same read-out and setting: next, `CCN1CCn2nc(-c3ccc(F)cc3)c(-c3ccc(=O)n(-c4ccccc4C)n3)c21` [Example 6, 6-[1-Ethyl-6-(4-fluorophenyl)-2,3-dihydro-1H-imidazo[1,2-b]pyrazol-7-yl]-2-(2-methylphenyl)-3(2H)-pyridazinone]: 80%; `Cc1ccccc1-n1nc(-c2c(-c3ccccc3)nn3c2CN(C(C)C)CC3)ccc1=O` [Example 130, 6-(5-isopropyl-2-phenyl-4,5,6,7-tetrahydropyrazolo[1,5-a]pyrazin-3-yl)-2-(2-methylphenyl)pyridazin-3(2H)-one]: 70%.
Molecule `Cc1ccccc1-n1nc(-c2c(-c3ccc(F)cc3)nn3c2NCC(CN2CCN(C)CC2)C3)ccc1=O` (stereo not shown) [Example 47, 6-(2-(4-Fluorophenyl)-6-[(4-methylpiperazin-1-yl)methyl]-4,5,6,7-tetrahydropyrazolo[1,5-a]pyrimidin-3-yl)-2-(2-methylphenyl)pyridazin-3(2H)-one dihydrochloride] yielded an inhibition at 0.1 µM of 95%.
Molecule `Cc1ccccc1N1N=C(c2c(-c3ccc(F)cc3F)nn3c2NCC(CN(C)C)C3)CCC1=O` (stereo not shown) [Example 55, 6-{2-(2,4-difluorophenyl)-6-[(dimethylamino)methyl]-4,5,6,7-tetrahydropyrazolo[1,5-a]pyrimidin-3-yl}-2-(2-methylphenyl)-4,5-dihydropyridazin-3(2H)-one] came in with an inhibition at 0.1 µM of 98%.

Another test concerns adjuvant-induced arthritis rats. Put plainly: Inhibition of hind paw swelling in adjuvant-induced arthritis rats. Type of test: in vivo, Lewis rats. The settings on record: Rattus norvegicus, po, 600 h, dose 0.3 mg/kg orally once a day from days 15 to 24, left hind paw volume on day 25, read-out: % inhibition of vehicle-treated rats. Here is the method: Arthritis was induced by injection of 0.5 mg of Mycobacterium tuberculosis (Difco Laboratories, Detroit, Mich.) in 50 μL of liquid paraffin into the right hind footpad of female Lewis rats aged 7 weeks (day 0). Normal untreated rats were used as negative controls. Animals were randomized and grouped (n≧5) for drug treatment based on an increase of left hind paw volume and body weight on day 15. Test compounds were suspended in vehicle (0.5% methylcellulose) and orally administered once a day from days 15 to 24. The volume of the left hind paw was measured on day 25 by a water displacement method using a plethymometer for rats (MK-550; Muromachi Kikai Co., Ltd., Tokyo, Japan).
Regarding `Cc1ccccc1-n1nc(-c2c(-c3ccc(F)cc3F)nn3c2NCC(CN(C)C)C3)ccc1=O` (stereo not shown) [Example 1, 6-{2-(2,4-difluorophenyl)-6-[(dimethylamino)methyl]-4,5,6,7-tetrahydropyrazolo[1,5-a]pyrimidin-3-yl}-2-(2-methylphenyl)-3(2H)-pyridazinone], the inhibition in vivo at 0.3 mg/kg worked out at 51.2%.

The same test, now with this note: Rattus norvegicus, po, 600 h, dose 0.5 mg/kg orally once a day from days 15 to 24, left hind paw volume on day 25, read-out: % inhibition of vehicle-treated rats.
On to `Cc1ccccc1-n1nc(-c2c(-c3ccc(F)cc3)nn3c2NC[C@@H](O)C3)ccc1=O` [Example 100, 6-[(6R)-2-(4-Fluorophenyl)-6-hydroxy-4,5,6,7-tetrahydropyrazolo[1,5-a]pyrimidin-3-yl]-2-(2-methylphenyl)pyridazin-3(2H)-one], for which the inhibition in vivo at 0.5 mg/kg was 40.2%.

Staying with this test, now noted: Rattus norvegicus, po, 600 h, dose 1 mg/kg orally once a day from days 15 to 24, left hind paw volume on day 25, read-out: % inhibition of vehicle-treated rats.
For `Cc1ccccc1-n1nc(-c2c(-c3ccc(F)cc3)nn3c2NCC(CO)C3)ccc1=O` (stereo not shown) [Example 3, 6-[2-(4-Fluorophenyl)-6-(hydroxymethyl)-4,5,6,7-tetrahydropyrazolo[1,5-a]pyrimidin-3-yl]-2-(2-methylphenyl)-3(2H)-pyridazinone], the inhibition in vivo at 1 mg/kg worked out at 56.4%.
Take `Cc1ccccc1-n1nc(-c2c(-c3ccc(F)cc3F)nn3c2NCC(CO)C3)ccc1=O` (stereo not shown) [Example 37, 6-[2-(2,4-Difluorophenyl)-6-(hydroxymethyl)-4,5,6,7-tetrahydropyrazolo[1,5-a]pyrimidin-3-yl]-2-(2-methylphenyl)pyridazin-3(2H)-one]: the inhibition in vivo at 1 mg/kg was determined as 63.6%.
Turning to `Cc1ccccc1-n1nc(-c2c(-c3ccc(F)cc3)nn3c2NCC2(C3)OCCO2)ccc1=O` [Example 86, 6-[2′-(4-Fluorophenyl)-4′,5′-dihydrospiro[1,3-dioxolane-2,6′-pyrazolo[1,5-a]pyrimidin]-3′-yl]-2-(2-methylphenyl)pyridazin-3(2H)-one], the inhibition in vivo at 1 mg/kg came to 48.1%.
Still for that read-out and setting: next, `Cc1ccccc1-n1nc(-c2c(-c3ccc(F)cc3)nn3c2NCC2(CCOCC2)C3)ccc1=O` [Example 63, 6-[2′-(4-Fluorophenyl)-2,3,4′,5,5′,6-hexahydrospiro[pyran-4,6′-pyrazolo[1,5-a]pyrimidin]-3′-yl]-2-(2-methylphenyl)pyridazin-3(2H)-one]: 39.5%; `Cc1ccccc1-n1nc(-c2c(-c3ccc(F)cc3)nn3c2NC(CO)CC3)ccc1=O` (stereo in doubt) [Example 124, 6-[(5S)-2-(4-Fluorophenyl)-5-(hydroxymethyl)-4,5,6,7-tetrahydropyrazolo[1,5-a]pyrimidin-3-yl]-2-(2-methylphenyl)pyridazin-3(2H)-one]: 50.6%.
`Cc1ccccc1-n1nc(-c2c(-c3ccc(F)cc3)nn3c2N[C@H](CO)CC3)ccc1=O` [Example 123, 6-[(5S)-2-(4-fluorophenyl)-5-(hydroxymethyl)-4,5,6,7-tetrahydropyrazolo[1,5-a]pyrimidin-3-yl]-2-(2-methylphenyl)pyridazin-3(2H)-one]: the inhibition in vivo at 1 mg/kg was determined as 62.3%.
On the same count and under the same terms, the figure for `Cc1ccccc1-n1nc(-c2c(-c3ccc(F)cc3)nn3c2NCC(O)C3)ccc1=O` (stereo not shown) [Example 18, 6-[2-(4-Fluorophenyl)-6-hydroxy-4,5,6,7-tetrahydropyrazolo[1,5-a]pyrimidin-3-yl]-2-(2-methylphenyl)-3(2H)-pyridazinone] is 46.1%; for `Cc1ccccc1-n1nc(-c2c(-c3ccc(F)cc3)nn3c2NCC(C)(C)C3)ccc1=O` [Example 132, 6-[2-(4-Fluorophenyl)-6,6-dimethyl-4,5,6,7-teterahydropyrazolo[1,5-a]pyrimidin-3-yl]-2-(2-methylphenyl)pyridazin-3(2H)-one] it is 60.4%.

For the origin of these results see patent publication US20090042856A1, “PYRIDAZINONE DERIVATIVES USED FOR THE TREATMENT OF PAIN” (Astellas Pharma Inc, priority 2005, published 2009).
